# From publication PMC5131266 (Scientific Reports, 2016)
# Assays:
# [1] = system: HIV-1; details: cited from earlier work
# [2] = system: MPER-PDGFR; assay: Cell-lysate ELISA, MPER-PDGFR; type: binding, HIV-1; details: 293T cell lysates, 20 nM IgG or Fab, normalized to 20 nM 17/9 IgG
# [3] = system: MPER-TM1; assay: Cell-lysate ELISA, MPER-TM1; type: binding, HIV-1; details: 293T cell lysates, 20 nM IgG or Fab, normalized to 20 nM 17/9 IgG
# [4] = system: simian immunodeficiency virus-HIV chimera; details: rhesus macaques; cited from earlier work
# Text: (§1) The 10E8 antibody achieves potent and broad HIV-1 neutralization by targeting the membrane-proximal external region of gp41 (MPER)[1][2]. […] The exceptionally high degree of conservation of the MPER sequence[4][5] justifies immunotherapeutic approaches based on the 10E8 antibody.
# [5] = system: SIVs that infect chimpanzees and gorillas; details: cited from earlier work
# Text: as §1
# [6] = target: HIV-1 Env of JRCSF on pseudovirus particles (HIV-1 group M subtype B, isolate JRCSF, UniProt P20871); assay: far-Western, overlay or dot blot; dot blot: decreasing amounts of PsV spotted on nitrocellulose, probed with Fab (0.2 ug/ml) in 5% milk in PBS, 1 h, room temperature; details: one partner purified
Molecule,mean IC50 [1],binding to MPER-PDGFR [2],binding to MPER-TM1 [3],protection against infection [4],neutralization potency [5],binding result [6]
"10E8 IgG: broadly neutralizing anti-HIV-1 gp41 MPER antibody 10E8, IgG",below 1 μg/mL,poor ligand,bind tightly,complete protection,nanomolar potency,–
10E8 WT Fab: recombinant unmodified Fab of anti-HIV-1 gp41 MPER antibody 10E8,–,poor ligand,comparable degree of binding,–,–,–
"10E8 Fab (Fab, V domains shown, also called Fab 10E8; WT) VH: EVQLVESGGGLVKPGGSLRLSCSASGFDFDNAWMTWVRQPPGKGLEWVGRITGPGEGWSVDYAAPVEGRFTISRLNSINFLYLEMNNLRMEDSGLYFCARTGKYYDFWSGYPPGEEYFQDWGRGTLVTVSS VL: SYELTQETGVSVALGRTVTITCRGDSLRSHYASWYQKKPGQAPILLFYGKNNRPSGVPDRFSGSASGNRASLTISGAQAEDDAEYYCSSRDKSGSRLSVFGGGTKLTVL",–,–,–,–,–,binds
